For the assay, the target named is T1, PcCDHTr (Phanerodontia chrysosporium, UniProt Q01738).
T1 construct: gene CDH-1; full two-domain flavocytochrome, native signal peptide (cleaved), untagged, secreted by Trichoderma reesei delta-xyr1; 83 kDa by SDS-PAGE
Description: TCA precipitation, released FAD by A450. The assay is classed as binding. The note with it: co-purified cofactor.

From paper PMC7789494 (Microbial Cell Factories, 2021) come the findings set out here.

T1 sequence (Q01738 19-773): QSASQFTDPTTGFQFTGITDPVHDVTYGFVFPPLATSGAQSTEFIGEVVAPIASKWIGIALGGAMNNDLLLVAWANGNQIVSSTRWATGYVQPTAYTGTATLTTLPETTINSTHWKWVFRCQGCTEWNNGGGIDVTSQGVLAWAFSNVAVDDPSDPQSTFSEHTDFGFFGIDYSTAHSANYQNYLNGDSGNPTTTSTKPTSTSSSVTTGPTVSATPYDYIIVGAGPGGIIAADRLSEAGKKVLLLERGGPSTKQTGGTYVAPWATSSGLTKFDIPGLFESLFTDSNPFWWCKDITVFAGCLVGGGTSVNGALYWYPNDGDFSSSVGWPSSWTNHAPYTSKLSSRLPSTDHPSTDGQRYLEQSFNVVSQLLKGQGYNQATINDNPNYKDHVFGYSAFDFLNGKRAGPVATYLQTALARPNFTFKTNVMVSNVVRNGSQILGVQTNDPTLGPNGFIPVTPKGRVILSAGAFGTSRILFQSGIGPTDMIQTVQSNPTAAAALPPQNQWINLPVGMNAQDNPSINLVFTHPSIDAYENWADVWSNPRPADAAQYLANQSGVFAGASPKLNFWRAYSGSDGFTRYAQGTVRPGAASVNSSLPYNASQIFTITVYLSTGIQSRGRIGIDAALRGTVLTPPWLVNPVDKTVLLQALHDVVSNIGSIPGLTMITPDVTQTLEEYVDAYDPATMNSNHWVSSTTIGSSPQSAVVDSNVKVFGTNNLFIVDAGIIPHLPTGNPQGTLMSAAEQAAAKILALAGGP

Regarding `Cc1cc2nc3c(=O)[nH]c(=O)nc-3n(C[C@H](O)[C@H](O)[C@H](O)COP(=O)(O)OP(=O)(O)OC[C@H]3O[C@@H](n4cnc5c(N)ncnc54)[C@H](O)[C@@H]3O)c2cc1C` [FAD], the FAD occupancy was determined as 70%.
